From article PMC8319603, “Developing C2-Aroyl Indoles as Novel Inhibitors of IDO1 and Understanding Their Mechanism of Inhibition via Mass Spectroscopy, QM/MM Calculations and Molecular Dynamics Simulation” (Frontiers in Chemistry, 2021) come the findings set out here.

SMILES strings stand for the structures. Values after ≈ are worked out from the molar mass of the structure shown. Values joined by “and” are separate entries in the source; they are usually repeats but may differ in a detail not shown here. Equal values may be shown once. Read-outs that look alike come from different tables or passages of the source.

As usually defined, the Papp is the rate of passage across a membrane or cell layer, normalised by area and donor concentration. The inhibition is the share of the control response that was lost under treatment. As a reminder, the IC50 is the point on the concentration scale where inhibition reaches its midpoint. By kinetic solubility is commonly meant solubility judged after dilution from a stock solution rather than from solid. For orientation: logP means the decadic logarithm of the partition coefficient of the neutral form, usually between octanol and water.

One data set in a line: PAMPA permeability. Type of data set: in vitro ADME. Particulars: for Papp at 5 h, 100 µM: phosphate buffer at pH 7.4. The source says:
(§1) For the DMPK studies of the compound 8a-d we used rat as well as human plasmas. Rat plasma was purchased from Hylasco Biotechnology Pvt. Ltd.™ Hyderabad, India. We have not performed any in vivo experiments for this manuscript neither for animals nor for humans. […] Also please note the blood plasma was obtained from the blood of Dr Srinivas R Maddi, who donated it and is the co-author of this article. The DMPK studies were supplemented by kinetic solubility, Log p and Log D determinations, PAMPA permeability, Metabolic and Plasma stability in rat and human, and finally the plasma folding in rat and human. A thorough discussion of each step is mentioned in the supplementary information. […]
PAMPA permeability: PAMPA permeability was determined by addition of the compounds to the donor wells at 100µM concentration in a total volume of 300µL in triplicates. The acceptor wells were filled with 200µL of phosphate buffered saline, pH 7.4, while maintaining 5% DMSO concentration on both sides. The plates were sandwiched and incubated for 5hours at room temperature. After incubation, 150µL of the sample from both donor and receiver wells was collected and centrifuged at […]
4000rpm for 20 minutes. […]

Data set [1] is described as follows: Metabolic stability in human liver microsomes. The data set is classed as in vitro ADME. How it is done:
(§2) Metabolic stability in mouse, rat and human liver microsomes: Metabolic stability was defined as the percentage of parent compound lost over time in the presence of a metabolically active test system.
(§3) The incubation mixtures consisted of liver microsomes 1.0 mg microsomal protein /mL , compound 1 uM or positive control verapamil, 1 uM . The reactions were initiated by adding 1 mM NADPH.
(§4) Reactions without NADPH at 0 and 60 min were also incubated to rule out non-NADPH metabolism or chemical instability in the incubation buffer. All reactions were terminated using 200 uL of ice-cold acetonitrile containing internal standard 200 ng/mL of telmisartan at 0, 5, 15, 30 and 60 min. The vials were centrifuged at 4000 rpm for 20 min. The supernatants thus obtained were analyzed on LC-MS/MS to monitor the disappearance of compound. […]

For data set [2], the target named is T1, recombinant protein of human IDO1 enzyme (Homo sapiens, UniProt P14902).
T1 construct: purchased Biovision P1096
The experiment in a line: IDO1 enzymatic assay in vitro (kynurenine formation, absorbance 492 nm). Particulars: for IC50: read-out: IC50 against IDO1. Type of data set: biochemical. The procedure: (§5) The recombinant human IDO/TDO protein were purchased from Biovision (Catalog no.: P1096 human recombinant IDO1 and CSB-YP023351HU human recombinant TDO2). All the other HPLC grade solvent were purchased from Merck Pvt. Ltd. The IDO/TDO assays were performed according to the reported procedures.1 and 2, the details of which is mentioned in the SI.
(§6) 20 µL of IDO1/TDO2 protein (1µg/ml concentration) was added and incubates for 10 min. After that 20 µL of 2 mM L-tryptophan was added and then treated with different test compounds concentration […]
(§7) The plate was then sealed well for 2hr incubation process at 37°C. After incubation, 40 µL of 30% TCA solution was added and again incubated for 15 min at 60 °C, the samples were centrifuged for 15 min at 13000 rpm at 4 °C. The 100 µL of supernatant was transferred in fresh 96 well plate and treated with 100 µL of freshly prepared 2% Ehlrich reagent which was then analyzed by absorbance plate reader at 492 nm to measure the extent of kynurenine formation. The DMSO content in the sample was 0.005 %. The final concentration of the compound in deep well plate was 5 µM. The IC50 values were calculated in triplicate by using GraphPadPrism […]
(§8) 1. Water was substituted with L-tryphtophan
(§9) 2. Water was substituted with L-tryhtophan and rhIDO/ rhTDO protein.
(§10) A = IDO activity in presence of inhibitor

Data set [3] is described as follows: Metabolic stability in rat liver microsomes. The note with it: for Rat liver microsomal stability % QH (hepatic extraction ratio): rat liver microsomes; for Clearance in animal microsomes: animal microsomal data among rat, dog and monkey. Type of data set: in vitro ADME. The procedure:
as §2, §3, §4

Data set [4] in a line: Plasma protein binding in rat plasma (rapid equilibrium dialysis). The data set is classed as in vitro ADME. Particulars: for Rat plasma protein binding %Ge bound / Rat plasma protein binding %Ge free: 10 μM; for fraction unbound at 10 μM: pH 7.4.
Excerpt: as §1
(§11) Plasma protein binding in rat and human plasma: To evaluate the ability of compound to bind the plasma proteins, the most common approach of plasma protein binding using rapid equilibrium dialysis device ( RED inserts) used. Compounds were tested at a final concentration of 10 μM in mouse, rat and human plasma. An aliquot of 500 μL plasma containing compound 3k was added in first half (plasma side) of the well of RED device. An aliquot of 300 μL of 100 mM sodium phosphate buffer pH 7.4 was added in the second half (buffer side) of the Insert. The plate containing plasma and […]
In general terms: In equilibrium dialysis free small molecules cross a membrane that holds back macromolecules.

A further data set is described as follows: Kinetic solubility. The note with it: for solubility kinetic at 18 h: phosphate buffered saline, aqueous buffer, kinetic from dmso stock, at 1 mg/ml in phosphate buffer at pH 7.4, read-out: Kinetic solubility of the compounds. Type of data set: physicochemical.
Excerpt: as §1
Kinetic solubility: Solubility of the compounds was dete rmined by incubating the compound at 500
µM concentration in phosphate buffer saline, pH7.4 for 18 hours with constant vortex at 500 rpm.
After incubation period, samples were centrifuged and supernatant was injected into HPLC to
determine the solubility. […]

The nature of data set [5]: Metabolic stability in monkey liver microsomes. The data set is classed as in vitro ADME. (In general: Liver microsomes are a subcellular fraction often used to study metabolism.)
Data set [6] has as its target T2, recombinant protein of human TDO2 enzyme (Homo sapiens, UniProt P48775).
T2 construct: purchased Biovision CSB-YP023351HU
In words: TDO2 enzymatic assay in vitro (kynurenine formation, absorbance 492 nm). The data set is classed as biochemical. The note with it: read-out: IC50 against TDO2. How it is done: as §5, §6, §7, §8, §9, §10

Data set [7] can be described thus: Plasma protein binding in human plasma (rapid equilibrium dialysis). Type of data set: in vitro ADME. The note with it: pH 7.4, human plasma.
Excerpt: as §1, §11

A short description of data set [8]: Log P determination (octanol/water). Type of data set: physicochemical.
Excerpt: as §1
Octanol and buffer layers were analysed by HPLC -UV by
adjusting the needle height for each Octanol and buffer and the amount of compound distributed i nto

The nature of a further data set: Stability in rat plasma. Type of data set: in vitro ADME.
Excerpt: as §1
(§12) Stability in rat and human plasma: Plasma stability is defined as the percentage of parent compound lost over time. The frozen plasma was thawed at room temperature and centrifuged at 1400 rpm 4 ℃, for 15 minutes. Approximately 90% of the clear supernatant fraction was transferred to a separate tube and was used for assay. The incubation mixtures consisted of human and rat palsma and compound (1 μM) or positive control (propanthelin, 1 μM) and incubated for 120 min at 37℃ in shaker with 500 rpm. All reactions were terminated using 200 μL of ice-cold acetonitrile containing internal standard (150 ng/mL of telmisartan) at 0, 15, 30, 60 and 120 min and centrifuged at 4000 rpm (Eppendorf, Germany) for 20min. The supernatants thus obtained were analyzed on LC-MS/MS to monitor the disappearance of compound. […]

Data set [9] is described as follows: Stability in human plasma. Type of data set: in vitro ADME.
Excerpt: as §1, §12

Data set [10] is described as follows: Metabolic stability in dog liver microsomes. Type of data set: in vitro ADME.
Where [11] appears, read: recombinant human IDO1, dose response study.
The mark [12] stands for this setting: 10 μM, read-out: Human plasma protein binding %Ge bound (converted).
[13] abbreviates: 10 μM, read-out: Human plasma protein binding %Ge free.
Setting [14] is: read-out: Fraction unbound in human plasma.

T2 sequence (P48775 whole entry): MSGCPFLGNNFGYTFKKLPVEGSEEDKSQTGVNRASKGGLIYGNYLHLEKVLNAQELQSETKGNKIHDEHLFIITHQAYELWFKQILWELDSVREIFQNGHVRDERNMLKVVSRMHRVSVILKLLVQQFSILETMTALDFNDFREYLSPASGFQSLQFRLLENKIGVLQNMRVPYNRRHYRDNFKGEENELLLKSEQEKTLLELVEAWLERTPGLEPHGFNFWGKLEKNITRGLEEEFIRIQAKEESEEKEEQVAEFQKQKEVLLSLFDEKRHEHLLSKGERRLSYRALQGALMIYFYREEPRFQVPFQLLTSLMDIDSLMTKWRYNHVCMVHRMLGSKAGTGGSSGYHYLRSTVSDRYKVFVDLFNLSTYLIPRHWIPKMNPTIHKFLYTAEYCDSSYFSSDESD
T1 sequence (P14902 whole entry): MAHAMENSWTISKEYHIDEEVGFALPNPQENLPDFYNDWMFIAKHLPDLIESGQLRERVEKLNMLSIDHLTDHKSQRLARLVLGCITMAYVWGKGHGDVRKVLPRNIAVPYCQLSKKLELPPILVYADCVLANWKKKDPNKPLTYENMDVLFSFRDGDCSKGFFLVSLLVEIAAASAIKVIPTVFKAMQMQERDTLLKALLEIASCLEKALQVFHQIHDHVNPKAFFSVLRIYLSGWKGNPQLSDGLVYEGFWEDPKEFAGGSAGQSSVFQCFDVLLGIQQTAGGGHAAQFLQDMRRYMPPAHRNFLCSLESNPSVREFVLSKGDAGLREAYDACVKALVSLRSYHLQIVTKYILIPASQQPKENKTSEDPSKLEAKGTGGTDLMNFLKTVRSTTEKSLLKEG

In the case of `CC(=O)NCCc1c(C(=O)c2cc(C(F)(F)F)cc(C(F)(F)F)c2)[nH]c2ccccc12` [8a], in the data set “PAMPA permeability”, the “Permeability” value is “very good” and the apparent permeability coefficient (Papp) at 5 h, 100 µM turned out to be 6.8 ×10⁻⁶ cm/s. In addition, in data set [1], the “Human liver microsomal % QH (hepatic extraction ratio)” value is recorded as 73.9% and the “Metabolic stability in liver microsomes” value is listed as “unstable”. For the same molecule, the “Percentage inhibition of IDO1” value in data set [2] (5 μM concentration of compound, 5 µM) is on record as 37%. For the same molecule, the inhibition at 5 µM in [2] (5 μM concentration of compound, read-out: Percentage inhibition of IDO1) is around 40%. In addition, the IC50 in data set [2] (setting [11]) came to 1.45 µM. The “Rat liver microsomal stability % QH (hepatic extraction ratio)” value in data set [3] was 12.6%. Moreover, in [4], the “Rat plasma protein binding %Ge bound” value was 97.3%, the “Rat plasma protein binding %Ge free” value turned out to be 2.7% and the fraction unbound at 10 μM stood at 0.027. For the same molecule, in the data set “Kinetic solubility”, the “Solubility” value is given as “very good” and the kinetic solubility at 18 h is 64.1 µg/mL (≈ 145 µM). Besides, in [5], the “Monkey liver microsomal stability % QH (hepatic extraction ratio)” value is 97%. The 50% inhibitory concentration (IC50) in data set [6] was found to be 6.95 µM. Also, the fraction unbound at 10 μM in data set [7] (setting [12]) is 0.0064. In addition, the fraction unbound at 10 μM in data set [7] (setting [13]) amounted to 0.0064. In data set [7] (setting [14]), the fraction unbound at 10 μM was found to be 0.0064. Also, the logP in [8] was above 3.5. Further, in “Stability in rat plasma”, the “Rat plasma stability %Ge remaining after 120 min” value amounted to 84.5%. Besides, in data set [9], the “Human plasma stability %Ge remaining after 120 min” value is reported as 84.5%. In data set [10], the “Dog liver microsomal stability % QH (hepatic extraction ratio)” value is 69%.
For `CC(=O)NCCc1c(C(=O)c2ccc([N+](=O)[O-])cc2)[nH]c2ccccc12` [8d], in the data set “PAMPA permeability”, the “Permeability” value is “very good” and the Papp at 5 h, 100 µM came out at 15.4 ×10⁻⁶ cm/s. Further, in data set [1], the “Human liver microsomal % QH (hepatic extraction ratio)” value is 33% and 32.6%; the “Metabolic stability in liver microsomes” value is recorded as “moderately stable”. Further, in data set [2] (IDO vs TDO), the “Selectivity for IDO over TDO” value is on record as “reasonable selectivity”. Moreover, the IC50 in [2] (recombinant human IDO1) stood at 0.18 µM. In addition, in data set [3], the “Clearance in animal microsomes” value was “low to moderate clearance” and the “Rat liver microsomal stability % QH (hepatic extraction ratio)” value was determined as 2.2%. Also, in [4], the “Rat plasma protein binding %Ge bound” value is 82.1%, the “Rat plasma protein binding %Ge free” value was 17.9% and the fraction unbound at 10 μM was determined as 0.179. For the same molecule, in the data set “Kinetic solubility”, the “Solubility” value is given as “very good” and the kinetic solubility at 18 h was 56.9 µg/mL (≈ 162 µM). For the same molecule, in [5], the “Monkey liver microsomal stability % QH (hepatic extraction ratio)” value was 74%. The concentration for half-maximal inhibition (IC50) in data set [6] was found to be 9.16 µM. Further, the fraction unbound at 10 μM in data set [7] (setting [12]) is 0.0952. Also, the fraction unbound at 10 μM in data set [7] (setting [13]) turned out to be 0.0952. In data set [7] (setting [14]), the fraction unbound at 10 μM worked out at 0.095. This molecule also came in with a logP in [8] of 2.67. Moreover, the “Rat plasma stability %Ge remaining after 120 min” value in the data set “Stability in rat plasma” is given as 91.3%. For the same molecule, the “Human plasma stability %Ge remaining after 120 min” value in data set [9] came out at 85.0%. Besides, the “Dog liver microsomal stability % QH (hepatic extraction ratio)” value in data set [10] was 39%.
For `COC(=O)NCCc1c(C(=O)c2ccccc2)[nH]c2ccccc12` [8e], in the data set “PAMPA permeability”, the “Permeability” value is “very good” and the apparent permeability coefficient (Papp) at 5 h, 100 µM came to 32.3 ×10⁻⁶ cm/s. For the same molecule, in [1], the “Human liver microsomal % QH (hepatic extraction ratio)” value stood at 58% and the “Metabolic stability in liver microsomes” value is reported as “moderately stable”. Moreover, the IC50 in data set [2] (setting [11]) came out at 1.52 µM. In data set [3], the “Clearance in animal microsomes” value is listed as “low to moderate clearance” and the “Rat liver microsomal stability % QH (hepatic extraction ratio)” value is reported as 14.9%. In data set [4], the “Rat plasma protein binding %Ge bound” value is on record as 95.9%, the “Rat plasma protein binding %Ge free” value amounted to 4.1% and the fraction unbound at 10 μM was determined as 0.041. Also, in “Kinetic solubility”, the “Solubility” value is “very good” and the kinetic solubility at 18 h is 67.4 µg/mL (≈ 209 µM). Moreover, in [5], the “Monkey liver microsomal stability % QH (hepatic extraction ratio)” value worked out at 96%. In addition, the IC50 in [6] stood at 16.8 µM. For the same molecule, in data set [7] (setting [12]), the fraction unbound at 10 μM was 0.0213. In addition, the fraction unbound at 10 μM in [7] (setting [13]) is 0.0213. Also, the fraction unbound at 10 μM in data set [7] (setting [14]) came out at 0.021. In addition, the log partition coefficient (logP) in data set [8] was 2.88. The “Rat plasma stability %Ge remaining after 120 min” value in the data set “Stability in rat plasma” was found to be 96.3%. The “Human plasma stability %Ge remaining after 120 min” value in data set [9] is recorded as 108.3%. Besides, the “Dog liver microsomal stability % QH (hepatic extraction ratio)” value in data set [10] was determined as 67%.
